Source: publication PMC3163380, “Design, Synthesis and Biological Evaluation of Novel Pyrimido[4,5-d]pyrimidine CDK2 Inhibitors as Anti-Tumor Agents” (Scientia Pharmaceutica, 2011)

Experiments:
HL-60(TB) = test: NCI primary anti-cancer assay (SRB), HL-60(TB); format: cell-based; settings: Homo sapiens; 10^−5M; Leukemia HL-60(TB); read-out: Growth Inhibition %
Description: (§1) Evaluation of anti-cancer activities on pyrimido[4,5-d]pyrimidine derivatives were performed at the National Cancer Institute (NCI) USA. First the newly synthesized compounds have been evaluated in primary anti-cancer assay at 10^−5M concentration against 60 human tumor cell lines then the active compounds were tested at 5 different concentrations against the same 60 human tumor cell lines. The biological data for the newly synthesized compounds are compiled in table 2
(§2) The cytotoxic activity was measured in vitro for the newly synthesized compounds using the SulfoRhodamine-B stain (SRB) assay using the method of Skehan. Cells were plated in 96-multiwell microtiter plate (10^4 cells/well) for 24 h before treatment with the compound(s) to allow attachment of cell to the wall of the plate. Tested compounds were dissolved in DMSO and diluted with saline to the appropriate volume. Triplicate wells were prepared for each individual dose. Monolayer cells were incubated with the compound(s) for 48 h at 37 °C and in atmosphere of 5% CO2. After 48 h, cells were fixed, washed, and stained for 30 min with 0.4% (wt/vol) with SRB dissolved in 1% acetic acid. Unbound dye was removed by four washes with 1% acetic acid, and attached stain was recovered with Tris-EDTA buffer. Color intensity was measured in an ELISA reader. The relation between surviving fraction and drug concentration is plotted to get the survival curve for tumor cell line after the specified time.

IGROV1 = test: NCI primary anti-cancer assay (SRB), IGROV1; format: cell-based; settings: Homo sapiens, IGROV-1; 10^−5M; Ovarian Cancer IGROV1; read-out: Growth Inhibition %
Description: as §1, §2

CDK2/CyclinA = molecular target: T1, CDK2/CyclinA (Homo sapiens, UniProt P24941); test: CDK2/cyclinA enzymatic activity inhibition assay (32P-ATP, histone H1); format: biochemical; settings: mean of at least two independent experiments
T1 construct: hexa-histidine (N); made in house; host or cells: sf21 insect cells (baculovirus)

HOP-92 = test: NCI primary anti-cancer assay (SRB), HOP-92; format: cell-based; settings: Homo sapiens; 10^−5M; Non-Small Cell Lung Cancer HOP-92; read-out: Growth Inhibition %
Description: as §1, §2

CDK4/CyclinD = CDK4/CyclinD (Homo sapiens, UniProt P11802); test: CDK4/CyclinD inhibition assay; format: biochemical; settings: mean of at least two independent experiments
RPMI-8226 = test: NCI primary anti-cancer assay (SRB), RPMI-8226; format: cell-based; settings: Homo sapiens; 10^−5M; Leukemia RPMI-8226; read-out: Growth Inhibition %
Description: as §1, §2

[1] = system: 60 human tumor cell lines; test: NCI primary anti-cancer assay, summary over tumor cell lines; format: cell-based; settings: 10^−5M, Non-small cell lung cancer, Ovarian cancer, Leukemia and Melanoma lines / different tumor cell lines, read-out: growth inhibitions (range over cell lines)
Description: as §1, §2

UO-31 = test: NCI primary anti-cancer assay (SRB), UO-31; format: cell-based; settings: Homo sapiens; 10^−5M; Renal Cancer UO-31; read-out: Growth Inhibition %
Description: as §1, §2

[2] = molecular target: T2, human EGFR tyrosine kinase domain (Homo sapiens, UniProt P00533); test: EGFR tyrosine kinase inhibition assay; format: biochemical; settings: mean of at least two independent experiments
T2 construct: C-terminal human EGFR tyrosine kinase domain

OVCAR-8 = test: NCI primary anti-cancer assay (SRB), OVCAR-8; format: cell-based; settings: Homo sapiens; 10^−5M; Ovarian Cancer OVCAR-8; read-out: Growth Inhibition %
Description: as §1, §2

MOLT-4 = test: NCI primary anti-cancer assay (SRB), MOLT-4; format: cell-based; settings: Homo sapiens; 10^−5M; Leukemia MOLT-4; read-out: Growth Inhibition %
Description: as §1, §2

BT-549 = test: NCI primary anti-cancer assay (SRB), BT-549; format: cell-based; settings: Homo sapiens; 10^−5M; Breast Cancer BT-549; read-out: Growth Inhibition %
Description: as §1
as §2, with “The relation between surviving fraction and drug concentration is plotted to get the survival curve for tumor cell line after the specified time.” left out

EKVX = test: NCI primary anti-cancer assay (SRB), EKVX; format: cell-based; settings: Homo sapiens; 10^−5M; Non-Small Cell Lung Cancer EKVX; read-out: Growth Inhibition %
Description: as §1
as §2, with “The relation between surviving fraction and drug concentration is plotted to get the survival curve for tumor cell line after the specified time.” left out

UACC-257 = test: NCI primary anti-cancer assay (SRB), UACC-257; format: cell-based; settings: Homo sapiens; 10^−5M; Melanoma UACC-257; read-out: Growth Inhibition %
Description: as §1, §2

A549/ATCC = test: NCI primary anti-cancer assay (SRB), A549/ATCC; format: cell-based; settings: Homo sapiens; 10^−5M; Non-Small Cell Lung Cancer A549/ATCC; read-out: Growth Inhibition %
Description: as §1, §2

MDA-MB-231/ATCC = test: NCI primary anti-cancer assay (SRB), MDA-MB-231/ATCC; format: cell-based; settings: Homo sapiens; 10^−5M; Breast Cancer MDA-MB-231/ATCC; read-out: Growth Inhibition %
Description: as §1, §2

HS 578T = test: NCI primary anti-cancer assay (SRB), HS 578T; format: cell-based; settings: Homo sapiens; 10^−5M; Breast Cancer HS 578T; read-out: Growth Inhibition %
Description: as §1, §2

MCF7 = test: NCI primary anti-cancer assay (SRB), MCF7; format: cell-based; settings: Homo sapiens; 10^−5M; Breast Cancer MCF7; read-out: Growth Inhibition %
Description: as §1
as §2, with “The relation between surviving fraction and drug concentration is plotted to get the survival curve for tumor cell line after the specified time.” left out

K-562 = test: NCI primary anti-cancer assay (SRB), K-562; format: cell-based; settings: Homo sapiens, K562; 10^−5M; Leukemia K-562; read-out: Growth Inhibition %
Description: as §1, §2

SF-539 = test: NCI primary anti-cancer assay (SRB), SF-539; format: cell-based; settings: Homo sapiens; 10^−5M; CNS Cancer SF-539; read-out: Growth Inhibition %
Description: as §1, §2

T2 sequence (P00533 712-979 limits assumed): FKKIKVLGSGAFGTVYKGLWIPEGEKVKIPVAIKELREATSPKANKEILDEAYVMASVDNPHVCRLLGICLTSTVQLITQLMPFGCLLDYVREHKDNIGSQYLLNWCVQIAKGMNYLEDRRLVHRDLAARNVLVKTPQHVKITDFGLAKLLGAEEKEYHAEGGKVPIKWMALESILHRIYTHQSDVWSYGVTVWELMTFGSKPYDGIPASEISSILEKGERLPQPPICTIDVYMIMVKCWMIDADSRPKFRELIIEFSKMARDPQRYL
Chain of CDK4/CyclinD (P11802 whole entry, species assumed): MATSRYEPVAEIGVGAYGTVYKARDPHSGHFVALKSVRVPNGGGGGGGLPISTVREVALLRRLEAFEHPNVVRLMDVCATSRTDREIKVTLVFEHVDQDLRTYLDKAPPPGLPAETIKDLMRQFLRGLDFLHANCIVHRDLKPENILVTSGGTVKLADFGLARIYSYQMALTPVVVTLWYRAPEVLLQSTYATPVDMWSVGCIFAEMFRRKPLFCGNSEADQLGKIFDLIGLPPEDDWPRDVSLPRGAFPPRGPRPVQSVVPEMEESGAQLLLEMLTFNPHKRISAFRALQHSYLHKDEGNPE
Chain of CDK4/CyclinD (P24385 whole entry partner, species assumed): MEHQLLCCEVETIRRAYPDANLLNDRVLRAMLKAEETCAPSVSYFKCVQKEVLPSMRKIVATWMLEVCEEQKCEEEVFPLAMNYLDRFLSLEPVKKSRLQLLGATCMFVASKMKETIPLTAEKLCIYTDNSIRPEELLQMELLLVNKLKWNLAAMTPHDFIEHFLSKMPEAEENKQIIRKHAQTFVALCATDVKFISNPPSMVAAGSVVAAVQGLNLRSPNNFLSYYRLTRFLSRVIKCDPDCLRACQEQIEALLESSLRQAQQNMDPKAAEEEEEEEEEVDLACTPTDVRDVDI

Row | SMILES | inhibition at 10 µM (HL-60(TB)) | inhibition at 10 µM (IGROV1) | IC50 (CDK2/CyclinA) | melting point | inhibition at 10 µM (HOP-92) | IC50 (CDK4/CyclinD) | inhibition at 10 µM (RPMI-8226) | inhibition at 10 µM [1] | inhibition at 10 µM (UO-31) | IC50 [2] | inhibition at 10 µM (MOLT-4) | inhibition at 10 µM (EKVX) | further results
1 | Cc1nc(Nc2ccc(NC(=S)Nc3ccccc3)cc2)nc2nc(Nc3ccc(S(=O)(=O)O)cc3)[nH]c(=O)c12 [Compound 7h, 4-{[5-Methyl-4-oxo-7-({4-[(phenylcarbamothioyl)amino]phenyl}amino)-3,4-dihydropyrimido[4,5-d]pyrimidin-2-yl]amino}benzenesulfonic acid] | 29% | 28% | 6 µM | > 300 °C | 24.3% | > 10 µM | 52.5% | 50 to 70% | 21.1% | > 10 µM | 20.8% |  | IC50 CDK4/CyclinD (CDK4/CyclinD): no activity; inhibition at 10 µM (OVCAR-8): 50.2%; inhibition at 10 µM (BT-549): 39%
2 | O=c1[nH]c(NCc2ccccc2)nc2nc(Nc3ccc(NC(=S)Nc4ccccc4)cc3)nc(-c3ccc(O)cc3O)c12 [Compound 7a, 1-(4-{[7-(Benzylamino)-4-(2,4-dihydroxyphenyl)-5-oxo-5,6-dihydropyrimido[4,5-d]pyrimidin-2-yl]amino}phenyl)-3-phenylthiourea] |  | 29.7% | 0.31 µM | > 300 °C |  | 3.33 µM | 22.6% | 50 to 70% | 21.4% | > 10 µM | 36.7% | 36.8% | inhibition at 10 µM (UACC-257): 60.3%; inhibition at 10 µM (A549/ATCC): 58.4%
3 | Cc1nc(Nc2ccc(NC(=S)Nc3ccccc3)cc2)nc2nc(NCc3ccccc3)[nH]c(=O)c12 [Compound 7b, 1-(4-{[7-(Benzylamino)-4-methyl-5-oxo-5,6-dihydropyrimido[4,5-d]pyrimidin-2-yl]amino}-phenyl)-3-phenylthiourea] | 24.5% |  | 0.86 µM | > 300 °C | 20.8% | 4.85 µM | 50.2% | 50 to 70% |  | > 10 µM | 32.9% | 28.5% | inhibition at 10 µM (MDA-MB-231/ATCC): 31.5%; inhibition at 10 µM (HS 578T): 33.6%; inhibition at 10 µM (MCF7): 43.5%; inhibition at 10 µM (K-562): 53.7%; inhibition at 10 µM (SF-539): 42%
